# pIC50: −log10 of the molar value.
# What was measured:
# GbA2 = molecular target: T1, GbA2 (Homo sapiens, UniProt Q9HCG7); test: In vitro potency on GbA2 (non-lysosomal glucosylceramidase); type: biochemical
# T1 sequence (Q9HCG7 1-927): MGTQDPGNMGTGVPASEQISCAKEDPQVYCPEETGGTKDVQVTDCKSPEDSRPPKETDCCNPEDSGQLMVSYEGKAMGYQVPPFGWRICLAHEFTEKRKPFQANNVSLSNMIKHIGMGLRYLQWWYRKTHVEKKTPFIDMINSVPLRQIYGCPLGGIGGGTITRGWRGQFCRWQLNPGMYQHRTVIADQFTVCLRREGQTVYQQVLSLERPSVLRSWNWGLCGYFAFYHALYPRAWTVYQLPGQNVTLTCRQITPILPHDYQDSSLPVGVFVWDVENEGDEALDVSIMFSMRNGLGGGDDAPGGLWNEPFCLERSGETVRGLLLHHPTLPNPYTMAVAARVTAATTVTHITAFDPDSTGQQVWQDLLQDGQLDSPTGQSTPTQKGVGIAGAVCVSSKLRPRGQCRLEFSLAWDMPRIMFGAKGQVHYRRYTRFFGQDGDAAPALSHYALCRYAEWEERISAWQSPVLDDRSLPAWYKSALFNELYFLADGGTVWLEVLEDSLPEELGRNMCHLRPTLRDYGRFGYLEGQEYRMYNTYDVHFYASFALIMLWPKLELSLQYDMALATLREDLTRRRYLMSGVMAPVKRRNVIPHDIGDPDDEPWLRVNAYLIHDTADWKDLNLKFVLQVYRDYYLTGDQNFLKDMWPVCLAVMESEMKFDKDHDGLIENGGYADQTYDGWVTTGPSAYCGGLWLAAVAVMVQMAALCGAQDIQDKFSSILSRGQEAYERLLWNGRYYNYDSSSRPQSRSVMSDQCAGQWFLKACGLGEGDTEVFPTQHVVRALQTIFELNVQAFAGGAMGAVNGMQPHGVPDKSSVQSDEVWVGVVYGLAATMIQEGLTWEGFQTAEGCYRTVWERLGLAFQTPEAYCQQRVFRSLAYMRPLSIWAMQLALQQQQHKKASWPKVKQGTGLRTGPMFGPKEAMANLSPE
# [1] = test system: Sandhoff mouse model (Hexb (−/−)); test: Survival study in Sandhoff mouse model; type: in vivo; conditions: Hexb (−/−) mice
# From the text: (strain: B6; 129S4-Hexbtm1Rlp/J). The mouse line was maintained by crossing homozygous −/− males with heterozygous females (generating litters with 50%−/− and 50%+/−) under specific pathogen-free conditions. All mice were housed in individual, ventilated cages (IVCs) with 12-h light/dark cycles with food and water ad libitum. Young-adult mice of the same genetic C57BL/6 background were from Jackson Laboratories. Breeding of Hexb mutants will target needs of the “Long-term” cohorts first, followed by the “16-week” biomarker study.
# Cohort 1: There were a total of 6 dose groups and 2 vehicle groups using both Hexb+/− and Hexb−/− animals. […] Dosing occurred daily from day 30 to day 170, unless the animal was prematurely euthanized per protocol.
# A subsequent study to explore lower doses was also performed (in the same manner as in Example 2) in which doses of 0.02, 0.06, 0.2 and 0.5 mg/kg/day were used. […] It is unclear why the 0.06 mg/kg/day had less survival as formulations were checked and confirmed accurate dosing (internal data).
# [2] = test system: Sandhoff mouse model (Hexb (−/−)); test: Open field test (OFT) in Sandhoff mice; type: in vivo; conditions: Hexb (−/−) mice vs vehicle, 0.5-6 mg/kg/day
# Method: The OFT was conducted using a 40×40 cm sized apparatus in a quiet room and constant lighting conditions. Trial duration was 5 min. All trials were videotaped and later analysed using the tracking software Smart® Version 3.0.05. Measures included the average locomotion speed, walked distance and time spent in outer and inner zones of the field.
# Behavioral assessments, including open field tests (OFT, ActiMot, TSE systems) and rotarod (RR, IITC Life Sciences), were also performed. The OFT assessed motor skills by placing a mouse into a square box with high walls for 5 minutes to record several parameters, including distance travelled (centimetres) and resting time in zone (seconds). Motor coordination of mice was assessed using a RR apparatus as per previously published protocol (Osmon, Vyas et al. 2018). Briefly, mice were placed on moving cylinders that accelerated from 4 to 40 rotations per minute (rpm) over 5 minutes. Each mouse was allowed three trials on the RR with a minimum of 10 minutes for rest in-between assessments. The highest number achieved was recorded for each of the following parameters: latency to fall, end rotations per minute and distance travelled.
# GlcCer C16:0 and C18:0 = test: Target engagement: GlcCer C16:0 and C18:0 in the cerebellum; type: in vivo, mouse; conditions: treated vs untreated heterozygous or Hexb (−/−) mice
# From the text: Consistent with this action, the inhibition of GbA2 should result in an increase in GlcCer species in the brain where GbA2 plays a significant role.
# [3] = Dynamic vapour sorption (DVS); type: physicochemical
# From the text: In addition, the behaviour of the sample of the Form 3 crystalline form of compound of formula (I) obtained by equilibration with ethyl acetate was investigated under variable water vapour pressures (DVS measurement). At the highest relative humidity of 95% the sample absorbed about 1.2% of water that was released when the relative humidity was returned to the 50% RH. The amount of absorbed water is small, and the water sorption is reversible. […] For Form 2, at high relative humidity the sample absorbed about 18% of water; however, most of the absorbed water was released when the relative humidity was returned to the 50% RH.
# Dynamic vapour sorption (DVS) measurements were performed with an SPS11-100n “Sorptions Prufsystem” from ProUmid (formerly “Projekt Messtechnik”), August-Nagel-Str. 23, 89079 Ulm (Germany). About 5 mg to 20 mg of sample was put into an aluminum sample pan. Humidity change rates of 5% per hour were used.
# Hexb (+/−) mice = test: Lifespan of heterozygous Hexb (+/−) mice under treatment; conditions: 3 mg/kg/day
# Method: For all cohorts, drug and/or vehicle (control) were administered by gastric gavage once a day, between 8.00-12.00 am, from the age of 30 days until euthanasia.
# In addition, animals heterozygous for the Hexb gene (+/−) were treated with vehicle or 3 mg/kg/day. Dosing continued until the animals reached their humane endpoints determined in a blinded fashion by the animal care staff and primarily consisted of the inability to reach sternal recumbency after 10 seconds and, if achieved, was additionally verified by the senior laboratory technician prior to the commencement of the animal being euthanized.
structure (smiles),measurement,setting,value
OC[C@H]1[C@@H](O)[C@H](O)[C@@H](O)CN1CCCCCOCc1ccc(-c2ccccc2)c(F)c1 [AZ-3102],inhibitory activity on GbA2,GbA2,low nM
same,pIC50,GbA2; in vitro potency,9.16
same,median survival,[1]; 0.02 mg/kg/day,120 days
same,median survival,[1]; 0.06 mg/kg/day,116 days
same,median survival,[1]; 0.2 mg/kg/day,133 days
same,median survival,[1]; 0.5 mg/kg/day,138 days
same,increase of average median survival,"[1]; 0.5-6 mg/kg/day oral gavage daily, vs vehicle (115 days)",26 days
same,minimal effective dose on survival,[1]; once daily gavage,0.2 mg/kg/day
same,increase in survival / life expectancy,[1]; treated vs vehicle/untreated,22%
same,"OFT assessments (Total Distance Travelled, Resting Time in Zone)",[2],significantly improved
same,increase in GlcCer C16:0,GlcCer C16:0 and C18:0,approximately 10 fold
same,increase in GlcCer C18:0,GlcCer C16:0 and C18:0,approximately 10 fold
same,hygroscopicity,[3]; DVS,non-hygroscopic or substantially non-hygroscopic
same,water absorbed (DVS),"[3]; highest relative humidity of 95%, reversible",about 1.2%
same,effect on lifespan compared to vehicle,Hexb (+/−) mice,no effect on lifespan

# From patent US20250120958A1, “Treatment of GM2 Gangliosidosis” (Azafaros B.V., priority 2022, published 2025)
